Reference: US11053233B2, “Solid form of (S)-[2-chloro-4-fluoro-5-(7-morpholin-4-yl-quinazolin-4-yl)phenyl]-(6-methoxy-pyridazin-3-yl)-methanol” (Merck Patent GmbH, priority 2017, dated 2021)
Values after ≈ are worked out from the molar mass of the structure shown.

Assays:
[1] = Solubility measurements in biorelevant media (shake flask 24 h, HPLC); type: physicochemical
Description: Solubility measurements were carried out in accordance with the method described further below.
• Test media: • SGF (Simulated gastric fluid without pepsin) pH 1.2: • 2.0 g sodium chloride were placed in a 1 L volumetric flask and dissolved in around 500 mL water. 80 mL of 1 M hydrochloric acid solution were added and the volume made up to 1 L. • The resulting SGF solution contains: 34.2 mM sodium chloride • FaSSIF (Fasted State Simulated Intestinal Fluid) pH 6.5: • 0.224 g SIF powder (obtained from biorelevant.com) were dissolved in FaSSIF buffer in a 100 mL volumetric flask and made up to volume. The FaSSIF medium was allowed to equilibrate for 2 h at ambient room temperature and used within 48 h of preparation. FaSSIF buffer can be made up by dissolving 0.42 g NaOH pellets, 3.44 g of monobasic sodium phosphate anhydrous and 6.19 g sodium chloride in about 0.9 L of purified water, adjusting the pH to […] with 1 N NaOH or 1 N HCl and making up the volume to 1 L. • The resulting FaSSIF contains: 3 mM sodium taurocholate; 0.75 mM lecithin; 105.9 mM sodium chloride; 28.4 mM monobasic sodium phosphate and 8.7 mM sodium hydroxide. • FeSSIF (Fed State Simulated Intestinal Fluid) pH 5.0: • 1.12 g SIF powder (biorelevant.com) were dissolved in FeSSIF buffer in a 100 mL volumetric flask and made up to volume. It was used within 48 h of preparation. FeSSIF buffer can be made up by dissolving 4.04 g NaOH pellets, 8.65 g of glacial acetic acid and 11.87 g sodium chloride in about 0.9 L of purified water, adjusting the pH to […] with 1 N NaOH or 1 N HCl and making up the volume to 1 L. • The resulting FeSSIF contains: 15 mM sodium taurocholate; 3.75 mM lecithin; 203.2 mM sodium chloride; 101.0 mM sodium hydroxide and 144.1 mM acetic acid. • Solubility Measurements: • Excess amount of substance was weighed into Uniprep® Whatman vials, to which 1 mL of test medium were added. The suspension was shaken for 24 h at 450 rpm (rounds per minute) at 37° C. The pH was measured at 1 h, 6 h and 24 h and the vials were checked for undissolved compound. The pH of the medium was adjusted wherever necessary. After 24 h, the solutions were filtered through 0.2 μm PTFE membrane filter and the filtrates analysed using HPLC after suitable dilutions. • HPLC: • Apparatus: Agilent 1100 • Column: Chromolith® Performance RP-18e100-3 mm, Art. 1.52001 (h) • Wavelength: 282 nm • Injection volume: 5 μL • Column Oven: 37° C. • Auto sampler: 37° C. • Eluent A for HPLC: Formic Acid:Ultrapure water (1:999;v/v) • Eluent B for HPLC: Formic Acid+Acetonitrile (1:999;v/v) • HPLC-Gradient: […]

[2] = Long-term DS (drug substance) stability investigations; type: physicochemical; conditions: up to 40° C./75% relative humidity
[3] = biological target: DNA-dependent protein kinase (DNA-PK) (Homo sapiens, UniProt P78527); assay: Inhibition of DNA-PK activity; type: biochemical
[4] = system: xenograft mouse models of human cancer (colon, lung, head and neck, pancreatic); assay: Combination with ionizing radiation in six xenograft mouse models of human cancer; type: in vivo; conditions: oral, 10 min prior to each fraction; IR 2 Gy per day over five days (10 Gy); all models
Description: (§1) The therapeutic relevance of DNA-PK inhibition by the drug substance as such was investigated in vivo in combination with ionizing radiation (IR), a clinically established DSB-inducing treatment. The drug substance was tested for activity in six xenograft mouse models of human cancer. The models were chosen from different cancer indications (colon, lung, head and neck, pancreatic), and histological subtypes (adeno, squamous, large cell). Ionizing radiation was administered using a fractionated schedule of 2 Gy per day administered over five consecutive days (total radiation dose=10 Gy). […] 10 min prior to each fraction of radiation (ONC397-1-2AZ, ONC397-1-3AZ, ONC397-1-4AZ, ONC397-1-5AZ, ONC397-1-8AZ).
(§2) The radiotherapy enhancing effect was quantified across the tested models by the time to reaching 400% initial volume for the 150 mg/kg study arms. The resulting Kaplan-Meier plots were compared by the log-rank test.

A549 = conditions: 150 mg/kg oral plus IR 5 x 2 Gy
Description: as §1, §2

HCT116 = conditions: 150 mg/kg oral plus IR 5 x 2 Gy
Description: as §1, §2

NCI-H460 = conditions: 150 mg/kg oral plus IR 5 x 2 Gy
Description: as §1, §2

[5] = system: DNA-PK autophosphorylation in cancer cell lines

SMILES | Solubility compared with the anhydrous ordered crystalline compound ([1]; at pH 1.2) | solubility at 24 h ([1]; fasted state simulated intestinal fluid (FaSSIF), pH 6.5, thermodynamic from solid, FaSSIF, pH of medium 6.5, 37 °C) [µg/mL] | solubility at 24 h ([1]; fed state simulated intestinal fluid (FeSSIF), pH 5, thermodynamic from solid, FeSSIF, pH of medium 5.0, 37 °C) [µg/mL] | Solubility compared with the anhydrous ordered crystalline compound ([1]; general statement) | solubility at 24 h ([1]; simulated gastric fluid without pepsin (SGF), pH 1.2, simulated gastric fluid, thermodynamic from solid, SGF, pH of medium 1.2, 37 °C) [µg/mL] | Chemical and physical stability [2] | Inhibition of DNA-PK activity [3] | Enhancement of the radiation effect [4] | Enhancement ratio (time to reaching 400% initial volume) (A549) | Enhancement ratio (time to reaching 400% initial volume) (HCT116) | Enhancement ratio (time to reaching 400% initial volume) (NCI-H460) | Inhibition of DNA-PK autophosphorylation [5]
COc1ccc([C@@H](O)c2cc(-c3ncnc4cc(N5CCOCC5)ccc34)c(F)cc2Cl)nn1 [anhydrous disordered crystalline form, (S)-[2-chloro-4-fluoro-5-(7-morpholin-4-yl-quinazolin-4-yl)phenyl]-(6-methoxy-pyridazin-3-yl)-methanol] | more than double the solubility of the crystalline form | 10 ± 1 (≈ 20.8 µM) | 56 ± 2 (≈ 116 µM) | significantly better | 2020 ± 67 (≈ 4200 µM) | high chemical and physical stability | – | – | – | – | – | –
COc1ccc([C@@H](O)c2cc(-c3ncnc4cc(N5CCOCC5)ccc34)c(F)cc2Cl)nn1 [drug substance, (S)-[2-chloro-4-fluoro-5-(7-morpholin-4-yl-quinazolin-4-yl)phenyl]-(6-methoxy-pyridazin-3-yl)-methanol] | – | – | – | – | – | – | potent and selective inhibitor | strong enhancement of the radiation effect | 1.5 | 1.5 | 2.6 | potent inhibition
